These results are taken from US6365593B2, “Methylxanthines in the diagnosis and treatment of autistic disorder” (Repligen Corporation, priority 2000, dated 2002).

Entries after “also recorded” stand apart in the source; their conditions may differ.

The test system of assay [1] is 7-MX levels in the first morning urine. Briefly: 7-MX levels in first morning urine of autistic subjects after secretin infusion (time course). The assay is classed as in vivo, human. On the procedure:
Urine samples from individuals, e.g., children, suspected of having autistic disorder are collected in 50 ml polypropylene centrifuge tubes and stored at a temperature below freezing, e.g., at −20° C. The samples are later thawed and centrifuged before pre-purification by solid phase extraction using e.g., SEP-PAK™ columns. The following is a suitable protocol for SEP-PAK™ extraction of one urine sample:
Suitable HPLC conditions to detect and analyze the methylxanthines and xanthines in a urine sample are as follows:
Samples are normalized for urinary output and variations in dilution using a standard creatinine assay. A portion of each sample is assayed to determine the creatinine content. Each sample is then diluted with water to achieve a standard creatinine concentration of […] in 100 μl of the sample.
Once the urine samples are properly pretreated, the level of methylxanthine, e.g., 7-MX, or xanthine is determined. […]
Samples of urine from autistic and non-autistic subjects were collected and analyzed for the presence of various metabolites before and after secretin treatment. Urine samples were analyzed by HPLC with a 4.5×100 mm C18 column detected at 215 nm and 280 nm. […]
The 7-MX levels in the first morning urine of autistic subjects after secretin treatment were monitored. […]

The subject of assay [2] is symptoms of autistic disorder. The conditions noted are these: individuals diagnosed with autistic disorder; cited from earlier work.
The next assay concerns 7-MX level in urine. Description: Double blind study: urinary 7-MX in autistic children after secretin or placebo. In kind it is in vivo, human. The note with it: groups 0 and 1, basal vs one week after secretin. From the text:
The urine samples of a double blind study on the effects of secretin on autistic children were available for further investigation on the changes of 7-MX after secretin treatment. Participants were divided into two groups. One group received secretin first, then placebo, and the other group received placebo first, then secretin. Three samples were collected for each subject: (i) basal urine, (ii) one week after secretin, (iii) one week after placebo. The changes of 7-MX level are shown in FIG. 8 (changes of 7-MX levels in double blind group “0”) and FIG. 9 (changes of 7-MX in double blind group “1”) for the two groups of patients. […] Only one subject in group 1 was an exception, where the basal 7-MX level was 10 times higher than the average.

For “secretin: a hormone shown to improve symptoms of autistic disorder; stimulates secretion of pancreatic bicarbonate fluid”, in assay [1] (autistic children, first morning urine, after secretin infusion), the “change of 7-MX level (HPLC peak RT5.5) in urine after secretin treatment” value was “increase in size after secretin treatment in some children; also recorded: increases during the first week after secretin infusion and then decreases; also recorded: increased, and then decreased after about one week”. Further, the “dose dependence of urinary 7-MX level after secretin” value in assay [1] (one autistic child, first treatment about 4 μg, second about 15 μg secretin) is “a higher dose of secretin would lead to a higher level of 7-MX in the urine”. The “effect on symptoms of autistic disorder” value in assay [2] is reported as “improve symptoms”. The “change of urinary 7-MX level one week after secretin” value with 7-MX level in urine was “increased or stayed at the same level, but did not decrease; also recorded: increased the excretion of 7-MX and other methylxanthines”.
